Data: patent US20260325533A1, “CDK INHIBITOR COMPOUNDS” (ALEKSIA THERAPEUTICS, INC., priority 2023, published 2026)
pIC50: −log10 of the molar value. Read-outs that look alike come from different tables or passages of the source. Values belong to the compound of their own block, whether it stands above or below them.

Key:
Type in all cases: biochemical
CDK4/CCND3 = CDK4/CCND3 (Homo sapiens, UniProt P11802); assay: CDK4 homogeneous time-resolved fluorescence (HTRF) kinase assay; settings: CDK4/CCND
CDK4/CCND3, sequence (P11802 whole entry): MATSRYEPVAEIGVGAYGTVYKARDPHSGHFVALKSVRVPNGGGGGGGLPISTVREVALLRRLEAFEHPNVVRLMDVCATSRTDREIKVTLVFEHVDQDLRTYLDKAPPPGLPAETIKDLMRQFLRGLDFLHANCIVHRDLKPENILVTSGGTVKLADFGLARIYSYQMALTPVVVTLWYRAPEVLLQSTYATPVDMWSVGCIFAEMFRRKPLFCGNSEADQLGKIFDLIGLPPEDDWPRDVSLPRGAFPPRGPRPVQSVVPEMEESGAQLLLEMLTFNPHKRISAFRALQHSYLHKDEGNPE
CDK4/CCND3, sequence (P30281 whole entry partner): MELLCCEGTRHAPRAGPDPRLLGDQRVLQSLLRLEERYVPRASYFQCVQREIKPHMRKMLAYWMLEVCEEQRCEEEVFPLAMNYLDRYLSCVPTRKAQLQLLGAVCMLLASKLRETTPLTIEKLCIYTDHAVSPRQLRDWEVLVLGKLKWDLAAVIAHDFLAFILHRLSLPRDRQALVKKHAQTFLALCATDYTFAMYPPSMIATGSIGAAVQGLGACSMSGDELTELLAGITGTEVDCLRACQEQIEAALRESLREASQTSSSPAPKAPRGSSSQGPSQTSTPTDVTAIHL
How it was run: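 CDK4/CCND3 at 1.5 nM was preincubated with compound for 20 min at 23 °C, then reacted for 60 min with 1 mM ATP and 50 nM ULight-4E-BP1 (Thr37/46) peptide. The reaction was stopped with EDTA, and phosphorylation was read by HTRF with a Eu-anti-phospho antibody. IC50 values came from 11-point half-log titrations, typically from 10 μM.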

CDK1/CCNB1 = CDK1/CCNB1 (Homo sapiens, UniProt P06493); assay: CDK1 homogeneous time-resolved fluorescence (HTRF) kinase assay; settings: CDK1/CCNB
CDK1/CCNB1, sequence (P06493 whole entry): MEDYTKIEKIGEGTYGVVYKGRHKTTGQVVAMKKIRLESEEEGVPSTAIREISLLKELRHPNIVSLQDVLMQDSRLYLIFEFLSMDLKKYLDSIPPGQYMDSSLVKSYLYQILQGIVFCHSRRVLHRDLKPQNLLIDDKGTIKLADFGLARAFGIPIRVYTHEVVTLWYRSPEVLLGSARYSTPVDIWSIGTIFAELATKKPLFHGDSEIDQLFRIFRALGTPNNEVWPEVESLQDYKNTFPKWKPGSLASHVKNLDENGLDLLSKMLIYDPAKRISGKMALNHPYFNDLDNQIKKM
CDK1/CCNB1, sequence (P14635 whole entry partner): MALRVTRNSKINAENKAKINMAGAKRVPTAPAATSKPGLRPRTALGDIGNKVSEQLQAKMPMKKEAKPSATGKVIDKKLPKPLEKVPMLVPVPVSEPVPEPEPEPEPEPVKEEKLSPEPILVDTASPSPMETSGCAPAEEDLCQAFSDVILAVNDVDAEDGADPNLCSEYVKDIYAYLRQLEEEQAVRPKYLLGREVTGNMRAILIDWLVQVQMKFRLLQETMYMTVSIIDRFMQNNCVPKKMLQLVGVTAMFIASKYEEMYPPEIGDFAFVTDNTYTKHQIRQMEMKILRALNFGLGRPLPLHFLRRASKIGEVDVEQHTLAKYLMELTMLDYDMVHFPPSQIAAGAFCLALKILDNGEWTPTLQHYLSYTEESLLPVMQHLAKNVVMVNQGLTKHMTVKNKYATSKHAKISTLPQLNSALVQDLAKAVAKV
How it was run: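 0.5 nM CDK1/CCNB1 was preincubated 20 min at 23 °C with compound in HEPES pH-unspecified buffer (MgCl2, EGTA, DTT, Tween 20), then reacted 60 min with 1 mM ATP and 50 nM ULight-4E-BP1 (Thr37/46) peptide. EDTA-stopped reactions were detected with 2 nM Eu-anti-phospho antibody; IC50 from 11-point half-log titrations.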

CDK2/CCNE1 = CDK2/CCNE1 (Homo sapiens, UniProt P24941); assay: CDK2 homogeneous time-resolved fluorescence (HTRF) kinase assay; settings: CDK2/CCNE
How it was run: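 CDK2/CCNE1 (3 nM) preincubated 20 min at 23 °C with compound, then reacted 60 min at 23 °C with 1 mM ATP and 50 nM ULight-4E-BP1 (Thr37/46) peptide. Stopped with EDTA, phospho-peptide detected by Eu-anti-phospho antibody (665 nm or 665/615 ratio). IC50 from 11-point half-log titrations typically starting at 10 μM.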

CDK6/CCND1 = CDK6/CCND1 (Homo sapiens, UniProt Q00534); assay: CDK6 homogeneous time-resolved fluorescence (HTRF) kinase assay; settings: CDK6/CCND
CDK6/CCND1, sequence (Q00534 whole entry): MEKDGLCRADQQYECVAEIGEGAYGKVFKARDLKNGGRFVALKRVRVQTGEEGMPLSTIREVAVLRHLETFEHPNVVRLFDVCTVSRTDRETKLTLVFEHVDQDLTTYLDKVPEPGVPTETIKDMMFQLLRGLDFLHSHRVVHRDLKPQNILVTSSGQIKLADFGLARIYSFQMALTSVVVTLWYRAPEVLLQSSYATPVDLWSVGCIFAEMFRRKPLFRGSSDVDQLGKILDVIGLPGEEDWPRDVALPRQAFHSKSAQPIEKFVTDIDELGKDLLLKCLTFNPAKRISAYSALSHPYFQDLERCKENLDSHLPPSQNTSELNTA
CDK6/CCND1, sequence (P24385 whole entry partner): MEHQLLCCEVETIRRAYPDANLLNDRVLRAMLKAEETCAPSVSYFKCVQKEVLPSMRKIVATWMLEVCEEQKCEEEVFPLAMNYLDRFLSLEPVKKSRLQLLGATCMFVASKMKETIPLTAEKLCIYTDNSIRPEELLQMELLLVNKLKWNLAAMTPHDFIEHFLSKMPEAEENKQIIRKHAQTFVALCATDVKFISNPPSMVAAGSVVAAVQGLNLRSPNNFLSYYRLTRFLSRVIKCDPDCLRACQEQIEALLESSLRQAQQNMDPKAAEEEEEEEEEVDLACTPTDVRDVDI
How it was run: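 Enzyme pre-incubated 20 min at 23 °C with compound, then reacted 60 min at 23 °C with 1 mM ATP and 50 nM ULight-4E-BP1 (Thr37/46) peptide; 1 nM enzyme, 1% DMSO. EDTA-stopped, Eu-anti-phospho antibody TR-FRET read (665 nm or 665/615 ratio); 11-point half-log titration from 10 μM gave IC50.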

[1] = >250 nM, read-out: CDK1/CCNB IC50 >250 nM
[2] = <25 nM, read-out: CDK2/CCNE IC50, <25 nM
[3] = x = IC50 >250 nM, read-out: CDK4/CCND IC50 (>250 nM column)
[4] = x = IC50 25-250 nM, read-out: CDK1/CCNB IC50 (25-250 nM)
[5] = x = IC50 <25 nM, read-out: CDK2/CCNE IC50 (<25 nM)
[6] = x = IC50 >250 nM, read-out: CDK6/CCND IC50 (>250 nM column)
[7] = >250 nM marked x, read-out: CDK1/CCNB IC50 >250 nM
[8] = <25 nM, read-out: CDK2/CCNE IC50 <25 nM
[9] = x = IC50 >250 nM, read-out: CDK1/CCNB IC50 (>250 nM column)
[10] = 25-250 nM, read-out: CDK4/CCND IC50, 25-250 nM
[11] = 25-250 nM, 1 mM ATP, read-out: CDK6/CCND IC50, 25-250 nM

SMILES: Cc1cc(S(N)(=O)=O)ccc1Nc1cc2c(C#Cc3cccnc3N)nccc2cn1 [Ex 448, 4-((5-((2-aminopyridin-3-yl)ethynyl)-2,6-naphthyridin-3-yl)amino)-3-methylbenzenesulfonamide]
pIC50 (CDK4/CCND3; [3]): < 6.60
pIC50 (CDK1/CCNB1; [4]): 6.60 to 7.60
pIC50 (CDK2/CCNE1; [5]): > 7.60
pIC50 (CDK6/CCND1; [6]): < 6.60

SMILES: Cc1c(-c2nccc3cnc(Nc4ccc(S(C)(=O)=O)cc4)cc23)ccc2nn(C)cc12 [Ex 166, 5-(2,4-dimethyl-2H-indazol-5-yl)-N-(4-(methylsulfonyl)phenyl)-2,6-naphthyridin-3-amine]
pIC50 (CDK4/CCND3; 25-250 nM marked x, read-out: CDK4/CCND IC50 25-250 nM): 6.60 to 7.60
pIC50 (CDK1/CCNB1; [7]): < 6.60
pIC50 (CDK2/CCNE1; [8]): > 7.60
pIC50 (CDK6/CCND1; 25-250 nM marked x, read-out: CDK6/CCND IC50 25-250 nM): 6.60 to 7.60

SMILES: CS(=O)(=O)c1ccc(Nc2cc3c(C#Cc4cnc5cc[nH]c5c4)nccc3cn2)cc1 [Ex 574, 5-((1H-pyrrolo[3,2-b]pyridin-6-yl)ethynyl)-N-(4-(methylsulfonyl)phenyl)-2,6-naphthyridin-3-amine]
pIC50 (CDK4/CCND3; [3]): < 6.60
pIC50 (CDK1/CCNB1; [9]): < 6.60
pIC50 (CDK2/CCNE1; [5]): > 7.60
pIC50 (CDK6/CCND1; [6]): < 6.60

SMILES: CC(C)S(=N)(=O)c1ccc(Nc2cc3c(C#Cc4ccc5c(c4)NC(=O)C54CC4)nccc3cn2)cc1 (single isomer, unassigned) [Ex 354, 6'-((7-((4-(propan-2-ylsulfonimidoyl)phenyl)amino)-2,6-naphthyridin-1-yl)ethynyl)spiro[cyclopropane-1,3'-indolin]-2'-one]
pIC50 (CDK4/CCND3; x = IC50 25-250 nM, read-out: CDK4/CCND IC50 (25-250 nM)): 6.60 to 7.60
pIC50 (CDK1/CCNB1; [4]): 6.60 to 7.60
pIC50 (CDK2/CCNE1; [5]): > 7.60
pIC50 (CDK6/CCND1; x = IC50 25-250 nM, read-out: CDK6/CCND IC50 (25-250 nM)): 6.60 to 7.60

SMILES: Cc1c(-c2nccc3cnc(Nc4ccc(S(C)(=O)=O)cc4)cc23)ccc2nn(CCO)cc12 [Ex 206, 2-(4-methyl-5-(7-((4-(methylsulfonyl)phenyl)amino)-2,6-naphthyridin-1-yl)-2H-indazol-2-yl)ethan-1-ol]
pIC50 (CDK4/CCND3; >250 nM marked x, read-out: CDK4/CCND IC50 >250 nM): < 6.60
pIC50 (CDK1/CCNB1; [7]): < 6.60
pIC50 (CDK2/CCNE1; 25-250 nM marked x, read-out: CDK2/CCNE IC50 25-250 nM): 6.60 to 7.60
pIC50 (CDK6/CCND1; >250 nM marked x, read-out: CDK6/CCND IC50 >250 nM): < 6.60

Next, values leading:

pIC50 (CDK4/CCND3; >250 nM, read-out: CDK4/CCND IC50, >250 nM): < 6.60
pIC50 (CDK1/CCNB1; [1]): < 6.60
pIC50 (CDK2/CCNE1; [2]): > 7.60
pIC50 (CDK6/CCND1; >250 nM, 1 mM ATP, read-out: CDK6/CCND IC50, >250 nM): < 6.60
SMILES: Cc1c(-c2nccc3cnc(Nc4ccc(S(=O)(=O)Nc5ccc(C(F)(F)F)nn5)cc4)cc23)ccc2c1cnn2CC(C)(C)O [Ex 799, 4-((5-(1-(2-hydroxy-2-methylpropyl)-4-methyl-1H-indazol-5-yl)-2,6-naphthyridin-3-yl)amino)-N-(6-(trifluoromethyl)pyridazin-3-yl)benzenesulfonamide]

pIC50 (CDK4/CCND3; [3]): < 6.60
pIC50 (CDK1/CCNB1; [9]): < 6.60
pIC50 (CDK2/CCNE1; [5]): > 7.60
pIC50 (CDK6/CCND1; [6]): < 6.60
SMILES: Cn1nccc1C#Cc1nccc2cnc(Nc3ccc(S(C)(=O)=O)cc3)cc12 [Ex 637, 5-((1-methyl-1H-pyrazol-5-yl)ethynyl)-N-(4-(methylsulfonyl)phenyl)-2,6-naphthyridin-3-amine]

pIC50 (CDK4/CCND3; [10]): 6.60 to 7.60
pIC50 (CDK1/CCNB1; [1]): < 6.60
pIC50 (CDK2/CCNE1; [2]): > 7.60
pIC50 (CDK6/CCND1; [11]): 6.60 to 7.60
SMILES: Cc1c(-c2nccc3cnc(Nc4ccc(S(=O)(=O)Nc5cc(C(C)(C)O)ccn5)cc4)cc23)ccc2c1cnn2CC(C)(C)O [Ex 774, 4-((5-(1-(2-hydroxy-2-methylpropyl)-4-methyl-1H-indazol-5-yl)-2,6-naphthyridin-3-yl)amino)-N-(4-(2-hydroxypropan-2-yl)pyridin-2-yl)benzenesulfonamide]

pIC50 (CDK4/CCND3; [10]): 6.60 to 7.60
pIC50 (CDK1/CCNB1; [1]): < 6.60
pIC50 (CDK2/CCNE1; [2]): > 7.60
pIC50 (CDK6/CCND1; [11]): 6.60 to 7.60
SMILES: Cc1c(-c2nccc3cnc(Nc4ccc([S@@](C)(=N)=O)cc4)cc23)ccc2c1cnn2CC(O)(C(F)(F)F)C(F)(F)F [Example 724, (S)-1,1,1,3,3,3-hexafluoro-2-((4-methyl-5-(7-((4-(S-methylsulfonimidoyl)phenyl)amino)-2,6-naphthyridin-1-yl)-1H-indazol-1-yl)methyl)propan-2-ol]

pIC50 (CDK4/CCND3; <25 nM, read-out: CDK4/CCND IC50 <25 nM): > 7.60
pIC50 (CDK1/CCNB1; 25-250 nM marked x, read-out: CDK1/CCNB IC50 25-250 nM): 6.60 to 7.60
pIC50 (CDK2/CCNE1; [8]): > 7.60
pIC50 (CDK6/CCND1; <25 nM, read-out: CDK6/CCND IC50 <25 nM): > 7.60
SMILES: CS(=O)(=O)N1CCC(Nc2cc3c(C4CCCCC4)nccc3cn2)CC1 [Example 21, 5-cyclohexyl-N-(1-(methylsulfonyl)piperidin-4-yl)-2,6-naphthyridin-3-amine]
